Data taken from US5936063A, “Antimicrobial peptide isolated from Bufo bufo gargarizans” (priority 1998, dated 1999).

Key:
Staphylococcus aureus = experiment: Minimal inhibitory concentration test; format: cell-based; conditions: Gram-positive bacteria
Description: (§1) Antimicrobial activity of the peptide of the invention was measured by its minimal inhibitory concentration against various test microorganisms (see: Table 1).
(§2) On the other hand, comparison of the antimicrobial activity of the peptide with a commercially available Magainin 2 (Sigma, USA) was followed and summarized in Table 2 below.

Salmonella typhimurium = experiment: Minimal inhibitory concentration test; format: cell-based; conditions: Gram-negative bacteria
Description: as §1, §2

Magainin 2
Minimal inhibitory concentration (Staphylococcus aureus): 13 mg/mL
Minimal inhibitory concentration (Salmonella typhimurium): 25 mg/mL
